In US20240016924A1, “NEW ADJUVANT TO IMPROVE THE INNATE IMMUNITY” (INSTITUT NATIONAL DE LA SANTÉ ET DE LA RECHERCHE MÉDICALE, priority 2020, published 2024):

System: primary HNECs
Experiment: MicroRNA microarray analysis and miR qPCR after P1 stimulation
Format: cell-based, human
Protocol: Confluent HNECs in 12-well plate were stimulated with medium or P1 (clade B, 125 μM) for 6 hours, at 37° C. Total RNA was extracted using Trizol. Before analysis, lfTSLP RNA up-regulation was confirmed by qPCR as described above and RNA quality was assessed with Agilent 2100 bioanalyzer according to manufacturer instructions (Agilent Technologies). Three untreated and treated paired samples from three independent experiments were analyzed by GeneChip miRNA 4.0 arrays (Affymetrix, Thermo Fisher) containing probes for 2578 human mature microRNAs and 2025 pre-mature microRNAs (https://assets.thermofisher.com/TFS-Assets/LSG/brochures/miRNA_4-0_and_4-1_datasheet.pdf). Potential microRNA targets were analyzed with the Ingenuity Pathway Analysis (IPA) software (Qiagen).
The quantification and knockdown of microRNA were performed as previously described with some modifications (Zhou, Xu et al. 2018). Briefly, total RNA was purified using MinElute PCR Purification Kit (Qiagen), the expression level of miR-4485 was quantified with TaqMan Small RNA Assays (Thermo Fisher). Reactions were performed in triplicates, and U6 was used as endogenous control. In order to knockdown miR-4485, 70% confluent HNEC cells were transfected with anti-miR-4485 inhibitor (67 nM, Qiagen) or mock inhibitor (miSCRIPT inhibitor negative control, 67 nM, Qiagen) using Lipofectamine RNAiMAX (Invitrogen) as described by the manufacturer. 36 h after transfection, miR-4485 expression, when quantified as described above, was reduced by 50-60% in anti-miR-4485 transfected cells as compared to anti-miR control (n=3 independent experiments).

For “SQNQQEKNEQELLELDKWASLWNWFNITNWLWYIK [P1]”, the “miR-4485-3p increase, microRNA array” value (P1 125 μM, 6 hours) was greater than 9 fold, the “number of differentially expressed microRNAs” value (P1 125 μM, 6 hours, microRNA array, p<0.05, 23 up-regulated, 16 down-regulated) was 39 and the miR-375 expression (primary HNECs, P1 stimulation) was “not accompanied by a change in miR-375 expression”. For the same sequence, the “increase in miR-4485-3p expression, qPCR” value (upon P1 stimulation, n=4) was 2.6±0.8 fold.
